Laboratory results taken from US6040149A, “Assay for identifying agents which act on the ceramide-activated protein kinase, kinase suppressor of ras, and methods of using said agents” (priority 1997, dated 2000).
Like-named read-outs stand apart in the source and are kept apart here.

Assays:
[1] = system: ceramide-activated protein kinase; assay: EGFR peptide phosphorylation by kinase in A-431 microsomal membranes / postnuclear supernatant; type: biochemical, human (A-431 epidermoid carcinoma cells); settings: words
Procedure: Kinetics of ^32 Pi incorporation into the EGFR peptide. […] The reaction was initiated by addition of 50 μl of [γ-^32 P]ATP (150 μM final concentration) and terminated by addition of 50 μl of 0.5 M ATP in 90% (vol/vol) formic acid. Samples were spotted on phosphocellulose paper, washed with 1 M acetic acid/4 mM pyrophosphate, and ^32 P incorporation was measured by liquid-scintillation counting, as described. A boiled protein blank was subtracted from each data value. The data (means) represent duplicate samples from one of two similar experiments. […]
Kinetics of ceramide-induced ^32 Pi incorporation into EGFR peptide. Peptide phosphorylation was done as described in FIG. 2 in the absence (.smallcircle.) or presence (.circle-solid.) of 0.5 μM C8 -ceramide. Phosphorylated peptide was resolved by HPLC. Values (means) represent data from three experiments.
Concentration-dependence of ceramide-induced ^32 Pi incorporation into EGFR peptide. Peptide phosphorylation reactions were done as described for FIG. 2, for 2 minutes, using various concentrations of ceramide (0.001-3 μM). Phosphorylated peptide was resolved by HPLC. Values (means) represent data from three experiments. […]
Phosphorylation was initiated at 22° C. by addition of 50 μl of [γ-^32 P] ATP (150 μM final concentration; 4000 dpm/pmol). For studies with lipid activators, ceramide and other lipids were dried under N2 and resuspended in the kinase assay buffer by bath sonication for 2 minutes at 37° C.
Phosphorylated peptide was quantified by two separate methods. For initial studies, samples were spotted on phosphocellulose paper, washed in 1 M acetic acid/4 mM pyrophosphate and subjected to liquid scintillation counting, according to methods well known to those skilled in the art. Values obtained from a boiled blank or a sample lacking peptide were subtracted from each determination. Alternatively, HPLC was done according to methods well known to those skilled in the art. For these studies, samples were first applied to a C18 Sep-Pak cartridge and eluted with 99.9% acetonitrile/0.1% trifluoroacetic acid. The eluates were lyophilized, resuspended in 6 M guanidine hydrochloride/200 mM Tris, pH 8.5 and applied to a C18 reverse-phase column (Dynamax, 4.6 mm i.d., Rainin, Woburn, Mass.). The peptide was eluted with a linear gradient (1% per minute) of acetonitrile at a flow rate of 1 ml/minute and was detected by measuring the Cerenkov radiation associated with 1-ml fractions.

[2] = system: ceramide-activated protein kinase
EL-4 cells = assay: Sphingomyelin and ceramide levels in intact EL-4 cells; type: cell-based, murine; settings: maximally effective concentrations (n=5)
Procedure: IL-1β effects on sphingomyelin levels in EL4 cells. Time course (A) and dose response (B). Cells were grown to growth arrest (1-1.5×10^6 cells ml^-1) in DME/Ham's F12 medium (1:1, v/v) containing 10% horse serum and for 48 hours [^3 H]choline (1 μCi ml^-1). On the day of an experiment, cells were resuspended back into the same medium at 10×10^6 cells ml^-1 and stimulated with 40 ng ml^-1 IL-1β for the indicated times (A) or for 30 minutes with increasing concentrations of IL-1β (B). Human IL-1β may be obtained using methods well known to those skilled in the art. Reactions were terminated with CHCl3 :CH3 OH:HCl (100:100:1) containing 10 mM EDTA (82). Lipids in the organic phase extract were dried under N2 and subjected to mild alkaline hydrolysis (0.1 M methanolic KOH for 1 hour at 37° C.) to remove glycerophospholipids. Sphingomyelin was resolved by thin-layer chromatography (TLC) using CHCl3 :CH3 OH:CH3 COOH:H2 O (60:30:8:5) as solvent, identified by iodine vapor staining, and quantified by liquid scintillation spectrometry. As previously reported, the use of [^3 H]choline as a measure of sphingomyelin content was validated by simultaneous phospholipid phosphorus measurements. Each value represents the mean±SEM of triplicate determinations from four experiments in (A), and one representative of four similar studies performed in triplicate in (B).
Effect of IL-1β on ceramide levels in EL-4 cells. Cells were stimulated as in FIG. 12 with IL-1β (40 ng ml^-1) and ceramide contained within the organic phase extract quantified enzymatically using the E. coli diacylglycerol kinase reaction. Lipids were resolved by TLC using CHCl3 :CH3 OH:CH3 COOH (65/15/5) as solvent, autoradiographed and quantified by liquid scintillation spectrometry. Each value represents the mean±SEM of triplicate determinations from 10 experiments.
The murine thymoma EL-4 cell line is a well-defined IL-1 responsive cell line that expresses functional IL-1 receptors. Upon stimulation with IL-1, these cells up-regulate the IL-2 receptor and secrete IL-2 [62]. Initial studies were designed to investigate the effects of IL-1β on cellular sphingomyelin content. Cells, grown in Dulbecco's Modified Eagle's (DME)/Ham's F-12 medium containing 10% horse serum and [^3 H]choline (1 μCi ml^-1), were resuspended back into the same medium at 10×10^6 cells ml^-1 and stimulated with IL-1β. IL-1β is commercially available.

KSR = target: T1, KSR (Mus musculus, UniProt Q61097); assay: KSR activity toward Raf-1 peptides in vitro; type: biochemical, mouse (KSR immunoprecipitated from COS-7 cells); set-up: Raf-1 peptides as substrate; settings: for KSR activity towards substrate peptide: 30 nM ceramide, 5 min
T1 sequence (Q61097 1-873): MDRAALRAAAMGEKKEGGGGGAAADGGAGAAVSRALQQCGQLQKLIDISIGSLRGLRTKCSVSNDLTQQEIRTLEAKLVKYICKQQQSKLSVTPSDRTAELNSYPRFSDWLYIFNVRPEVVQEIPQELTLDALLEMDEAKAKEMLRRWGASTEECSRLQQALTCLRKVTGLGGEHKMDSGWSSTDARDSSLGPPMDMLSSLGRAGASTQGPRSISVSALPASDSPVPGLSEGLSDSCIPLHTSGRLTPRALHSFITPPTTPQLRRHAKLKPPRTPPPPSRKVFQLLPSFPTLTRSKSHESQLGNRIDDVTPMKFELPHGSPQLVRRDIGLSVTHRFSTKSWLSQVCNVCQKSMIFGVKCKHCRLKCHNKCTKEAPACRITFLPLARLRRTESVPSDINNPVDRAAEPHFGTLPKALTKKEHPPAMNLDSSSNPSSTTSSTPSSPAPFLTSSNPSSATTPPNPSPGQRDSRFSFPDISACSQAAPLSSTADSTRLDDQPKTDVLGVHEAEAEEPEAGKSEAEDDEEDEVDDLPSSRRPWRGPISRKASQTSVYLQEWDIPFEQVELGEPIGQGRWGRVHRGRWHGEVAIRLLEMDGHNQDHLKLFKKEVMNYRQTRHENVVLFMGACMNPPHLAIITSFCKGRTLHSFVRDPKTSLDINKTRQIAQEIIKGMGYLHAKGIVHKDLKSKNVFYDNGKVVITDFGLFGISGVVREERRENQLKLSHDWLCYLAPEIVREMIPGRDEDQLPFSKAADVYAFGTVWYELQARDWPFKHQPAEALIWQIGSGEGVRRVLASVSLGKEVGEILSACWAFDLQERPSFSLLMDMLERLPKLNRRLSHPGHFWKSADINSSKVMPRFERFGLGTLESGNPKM
Procedure: The wild type peptide contains eight potential phosphorylation sites (shown in bold). Substitution of alanines and glycines for serines and threonines generated one peptide (TTLP-peptide) containing only two potential phosphorylation sites (Thr^268,269) and another peptide (AALP-peptide) with no potential phosphorylation sites.
FIG. 28A--Flag-tagged KSR was immunoprecipitated from 0.2 mg COS-7 lysate, and assayed with TTLP- or AALP-peptides in the presence of 30 nM ceramide (Avanti) or diluent (DMSO). Background counts per minute (cpm) derived from samples incubated with the AALP-peptide which contains no phosphorylation sites were subtracted from all points. Background cpm always represented less than 25% of the untreated total.
FIG. 28B--Flag-tagged KSR immunoprecipitated from 0.2 mg COS-7 lysate was assayed with TTLP- or AALP-peptides in the presence of ceramide or diluent for 45 min as described in FIG. 7A.
FIG. 28C--Flag-tagged KSR was immunoprecipitated from 0.15 mg COS-7 lysate and assayed with TTLP- or AALP-peptides for 20 min in the presence of 30 nM of the indicated lipid second messengers as described in FIG. 28A (AA: arachidonic acid; LPA: lyso phosphatidic acid; PMA: phorbol 12-myristate 13-acetate; DAG: 1,2-diacylglycerol).
KSR-bound beads were incubated with reaction buffer B plus 10 mM MnCl2, 5 μM ATP and [γ-^32 P]ATP at 22° C. for the period of time indicated in the presence of 0.3 mM synthetic Raf-peptide or substrate peptides specific for other Ser/Thr protein kinases. […] (SEQ ID NO.3). Substitution of glycines and alanines for serines and threonines generated one peptide (termed TTLP-peptide) containing only two potential phosphorylation sites at Thr^268,269 (in bold), […] (SEQ ID NO. 24), and another peptide (termed AALP-peptide; SEQ ID No.6) with no potential phosphorylation sites, […] (SEQ ID No.25). The amino acid sequences of substrate peptides specific for other protein kinases (Joseph et al., 1993) are: […] (SEQ ID NO.26) (PKA); […] (SEQ ID NO.27) (S6 kinase); […] (SEQ ID NO.28)(CK II); […] (SEQ ID NO.29) (CaM kinase II); and […] (SEQ ID NO.30) (PKC). […] Substrate peptides for PKA and PKC were from Sigma (St. Louis, Mo.). The reaction was stopped by addition of a stop solution containing 0.5 M ATP in 90% formic acid. The beads were removed by centrifugation at 5000×g for 2 min and the supernatant was loaded on P81 Whatman filter paper. The filter was air dried and washed in 4 mM Na2 H2 P2 O7, 1 mM acetic acid for one hour. The filter was baked at 90° C. for 10 min and quantified by Cerenkov counting using a Beckman LS 5000TD scintillation counter. In some experiments, samples were separated by C18 reverse-phase chromatography on HPLC (Mathias et al., 1991) to verify the results of the filter assay. Virtually identical results were obtained with both methods.

CCCCCCCCCCCCC/C=C/[C@@H](O)[C@H](CO)NC(=O)CCCCCCC [C8-ceramide, N-octanoylsphingosine]
effect on EGFR peptide phosphorylation [1]: similarly effective
maximal kinase activity, fold of control ([2]; 10 μM C8-cer added to medium): 1.5 fold of control

CNC[C@H](O)c1ccc(O)c(O)c1 [epinephrine]
ceramide response (EL-4 cells): failed to elicit a ceramide response

CCCCCCCCCCCCCCCC(=O)O [palmitic acid]
effect on EGFR peptide phosphorylation [1]: failed to increase EGFR peptide phosphorylation

CC1=C(/C=C/C(C)=C/C=C/C(C)=C/C(=O)O)C(C)(C)CCC1 [retinoic acid]
effect on kinase activity in membranes of stimulated HL-60 cells ([2]; cholera toxin 10 nM, retinoic acid 0.5 μM, butyrate 0.5 mM): not stimulated

GRGLSLSR [PKA substrate peptide]
KSR activity towards substrate peptide (KSR): minimal activity

LSSLRASTSKSGGQK [S6 kinase substrate peptide]
KSR activity towards substrate peptide (KSR): minimal activity

PLARTLSVAGLPGK [CaM kinase II substrate peptide]
KSR activity towards substrate peptide (KSR): minimal activity

RQRGAGAPNVHMVGAALPVDGRMIE [AALP-peptide]
phosphorylation of peptide by KSR (KSR): negligible

RQRGAGAPNVHMVGTTLPVDGRMIE [TTLP-peptide]
phosphorylation of peptide by KSR (KSR): same extent

RRREEETEEE [CK II substrate peptide]
KSR activity towards substrate peptide (KSR): minimal activity

VRKRTLRRL [PKC substrate peptide]
KSR activity towards substrate peptide (KSR): minimal activity

cholera toxin
effect on kinase activity in membranes of stimulated HL-60 cells [2]: not stimulated

concanavalin A
ceramide response (EL-4 cells): failed to elicit a ceramide response

dihydroceramide
activation of KSR (KSR): fail to activate KSR
